Test results from patent US11046722B2, “Sulphated disaccharides for the treatment of neuropathic pain” (BIOIBERICA, S.A.U., priority 2017, dated 2021).

Columns and labels:
[1] = system: mechanical allodynia induced in mice by intraplantar capsaicin injection; assay: Mechanical allodynia induced by intraplantar capsaicin injection (von Frey, latency to paw withdrawal); assay type: in vivo
Description: Thus, in Example 1, an experimental trial is described performed on mice with mechanical allodynia induced by intraplantar capsaicin injection, according to the model described in the article by Entrena et al., Antagonism by haloperidol and its metabolites of mechanical hypersensitivity induced by intraplantar capsaicin in mice: role of sigma-1 receptors, Psychopharmacology, 2009, 205, 21-33. This trial is based on hypersensitivity induced in the mice by means of injecting capsaicin in the right hind paw. The allodynia is quantified by measuring the decrease in latency time in the hypersensitized mice until paw withdrawal, when a mechanical stimulus is applied to it.
For this trial, 6 groups of mice were used with between 8 and 12 animals in each group. […] 15 minutes after the injection, different mechanical stimuli were applied with a von Frey filament with a force of 0.5 g in an esthesiometer, and the values of the latency time until paw withdrawal were recorded. […]
In order to quantify the anti-allodynic effect, a value of 100% allodynia was assigned to the latency time of the animals injected with capsaicin and without pharmacological treatment (only treated with the vehicle). […]

[2] = system: allodynia induced in mice by injecting paclitaxel; assay: Neuropathic pain induced by chemotherapy (paclitaxel): reversal by a single dose after induction; assay type: in vivo; settings: paclitaxel 2 mg/Kg i.p. for 5 days, day 10, single oral dose, increasing doses 7.5, 15 and 30 mg/Kg, 45 minutes after administration
Procedure: In Example 3 an experimental model is used in mice based on inducing allodynia by intraperitoneal injection of paclitaxel, as described in the articles by Smith et al., Paclitaxel-induced neuropathic hypersensitivity in mice: responses in 10 inbred mouse strains, Life Sci., 2014, 2593-2604 and Palomano et al., Chemotherapy-evoked painful peripheral neuropathy, Pain Med., 2001, 2 (1), 8-14. In alternative trials, compound Ic was administered after allodynia induction by paclitaxel, or it was administered jointly with this chemotherapy medication. It is observed that compound Ic is effective at both reversing the allodynia induced by paclitaxel (FIG. 4), and preventing the development thereof when coadministered with paclitaxel (FIG. 5).
In this test, groups of mice between 7 and 12 animals were used, to which a daily dose of paclitaxel of 2 mg/Kg was administered by intraperitoneal route for 5 consecutive days (except for the control group). The evaluation of the induced mechanical allodynia was carried out on the 10th day after the first paclitaxel injection, and was quantified by using the von Frey filaments, according to the force threshold necessary to cause the paw withdrawal of the animal. […]

CO[C@H]1O[C@H](COS(=O)(=O)[O-])[C@@H](OS(=O)(=O)[O-])[C@H](O[C@@H]2O[C@H](C(=O)[O-])[C@@H](O)[C@H](O)[C@H]2O)[C@H]1NC(C)=O.[Na+].[Na+].[Na+] [Compound Ic, methyl 2-acetamido-2-desoxi-3-O-(β-D-glucopyranosyluronic acid)-4,6-di-O-sulfo-α-D-glucopyranoside trisodium salt]
anti-allodynic effect ([1]; capsaicin 1 μg intraplantar, 3, 10 and 30 mg/Kg by gavage 45 minutes before the trial, effect dose-dependent): notable anti-allodynic effect | reduction of the allodynia ([1]; capsaicin, highest dose 30 mg/Kg by gavage 45 minutes before the trial, 100% = capsaicin + vehicle): more than 50% | reversal of paclitaxel-induced allodynia [2]: reversed the paclitaxel-induced allodynia
